{"source": "patent US10966426B2", "about": "“Herbicidal compositions comprising phenylpyrimidines” (BASF SE, priority 2016, dated 2021)", "type_in_all_cases": "in vivo", "key": {"Poa annua": {"tested_on": "Poa annua", "assay": "greenhouse pre-emergence treatment, POAAN", "details": "clomazone solo (CS 360 g/l), 20 DAT", "text": "(§1) The culture containers used were plastic pots containing loamy sand with approximately 3.0% of humus as substrate. The seeds of the test plants were sown separately for each species.\n(§2) For the pre-emergence treatment, the active compounds, suspended or emulsified in water, were applied directly after sowing by means of finely distributing nozzles. The containers were irrigated gently to promote germination and growth and subsequently covered with transparent plastic hoods until the plants had rooted. This cover caused uniform germination of the test plants unless this was adversely affected by the active compounds.\n(§3) Depending on the species, the plants were kept at 10-25° C. and 20-35° C., respectively.\n(§4) The test period extended over 2 to 4 weeks. During this time, the plants were tended and their response to the individual treatments was evaluated.\n(§5) Evaluation was carried out using a scale from 0 to 100. 100 means no emergence of the plants, or complete destruction of at least the above-ground parts, and 0 means no damage or normal course of growth. A good herbicidal activity is given at values of at least 70, and very good herbicidal activity is given at values of at least 85.\n(§6) The respective stated components A and B, and if appropriate, C were formulated as a 10% by weight strength emulsion concentrate and, with addition of the amount of solvent system, introduced into the spray liquor used for applying the active compound. In the examples, the solvent used was water.\n(§7) In the examples below, using the method of S. R. Colby (1967) “Calculating synergistic and antagonistic responses of herbicide combinations”, Weeds 15, p. 22ff., the value E, which is expected if the activity of the individual active compounds is only additive, was calculated. E=X+Y−(X·Y/100) where X=effect in percent using herbicide A at an application rate a; • Y=effect in percent using herbicide B at application rate b; • E=expected effect (in %) of herbicide A+herbicide B at application rates a+b."}, "Alopecurus myosuroides": {"tested_on": "Alopecurus myosuroides", "assay": "greenhouse pre-emergence treatment, ALOMY", "details": "clomazone solo (CS 360 g/l), 30 gai/ha, 20 DAT", "text": "as §1, §2, §3, §4, §5, §6, §7"}, "Avena fatua": {"tested_on": "Avena fatua", "assay": "greenhouse pre-emergence treatment, AVEFA", "details": "Avena fatua, 480 h, read-out: % activity", "method_in_brief": "(§8)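 Damage rated on 0 to 100 scale (0 = normal growth, 100 = no emergence or total above-ground kill) after 2-4 weeks at species-dependent 10-25° C or 20-35° C. Seeds sown per species in loamy sand, ~3.0% humus, treated right after sowing with aqueous spray of single actives or 10% emulsion-concentrate mixtures, then hooded; additive expectation by Colby.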"}, "Helianthus annuus": {"tested_on": "Helianthus annuus", "assay": "greenhouse pre-emergence treatment, HELAN", "details": "Helianthus annuus, 480 h, read-out: % activity", "method_in_brief": "as §8"}, "Lolium multiflorum": {"tested_on": "Lolium multiflorum", "assay": "greenhouse pre-emergence treatment, LOLMU", "details": "Lolium multiflorum, 480 h, read-out: % activity", "method_in_brief": "as §8"}, "Polygonum convolvulus": {"tested_on": "Polygonum convolvulus", "assay": "greenhouse pre-emergence treatment, POLCO", "details": "Fallopia convolvulus, 480 h, read-out: % activity", "text": "as §1, §2, §3, §4, §5, §6, §7"}, "Setaria viridis": {"tested_on": "Setaria viridis", "assay": "greenhouse pre-emergence treatment, SETVI", "details": "SETVI, 20 DAT", "method_in_brief": "as §8"}, "Galium aparine": {"tested_on": "Galium aparine", "assay": "greenhouse pre-emergence treatment, GALAP", "details": "Galium aparine, 480 h, read-out: % activity", "method_in_brief": "as §8"}, "Echinocloa crus-galli": {"tested_on": "Echinocloa crus-galli", "assay": "greenhouse pre-emergence treatment, ECHCG", "details": "clomazone solo (CS 360 g/l), 120 gai/ha, 20 DAT", "text": "as §1, §2, §3, §4, §5, §6, §7"}, "Digitaria sanguinalis": {"tested_on": "Digitaria sanguinalis", "assay": "greenhouse pre-emergence treatment, DIGSA", "method_in_brief": "as §8"}, "Bromus sterilis": {"tested_on": "Bromus sterilis", "assay": "greenhouse pre-emergence treatment, BROST", "details": "Bromus sterilis, 480 h, read-out: % activity", "method_in_brief": "as §8"}, "Brachiaria decumbens": {"tested_on": "Brachiaria decumbens", "assay": "greenhouse pre-emergence treatment, BRADC", "details": "BRADC, 20 DAT; for % activity: clomazone solo (CS 360 g/l)", "method_in_brief": "as §8"}, "Apera spica-venti": {"tested_on": "Apera spica-venti", "assay": "greenhouse pre-emergence treatment, APESV", "details": "clomazone solo (CS 360 g/l), 20 DAT", "text": "as §1, §2, §3, §4, §5, §6, §7"}, "Ambrosia elatior": {"tested_on": "Ambrosia elatior", "assay": "greenhouse pre-emergence treatment, AMBEL", "details": "AMBEL, 20 DAT; for % activity: clomazone solo (CS 360 g/l)", "method_in_brief": "as §8"}}, "data": [{"smiles": "CC1(C)CON(Cc2ccccc2Cl)C1=O", "note": "[clomazone]", "values": [{"measurement": "% activity", "setting": "Poa annua; 15 gai/ha", "result": 0, "unit": "%"}, {"measurement": "% activity", "setting": "Poa annua; 30 gai/ha", "result": 0, "unit": "%"}, {"measurement": "% activity", "setting": "Poa annua; 60 gai/ha", "result": 30, "unit": "%"}, {"measurement": "% activity", "setting": "Poa annua; 120 gai/ha", "result": 80, "unit": "%"}, {"measurement": "% activity", "setting": "Alopecurus myosuroides", "result": 0, "unit": "%"}, {"measurement": "pest or weed control at 30 g/ha", "setting": "Avena fatua", "result": 0, "unit": "%"}, {"measurement": "plant injury at 30 g/ha", "setting": "Helianthus annuus", "result": 10, "unit": "%"}, {"measurement": "pest or weed control at 60 g/ha", "setting": "Lolium multiflorum", "result": 40, "unit": "%"}, {"measurement": "pest or weed control at 120 g/ha", "setting": "Lolium multiflorum", "result": 60, "unit": "%"}, {"measurement": "pest or weed control at 60 g/ha", "setting": "Polygonum convolvulus", "result": 60, "unit": "%"}, {"measurement": "pest or weed control at 120 g/ha", "setting": "Polygonum convolvulus", "result": 75, "unit": "%"}, {"measurement": "% activity", "setting": "Setaria viridis; solo clomazone (CS 360 g/l) 30 gai/ha", "result": 0, "unit": "%"}, {"measurement": "% activity", "setting": "Setaria viridis; clomazone solo (CS 360 g/l), 60 gai/ha", "result": 30, "unit": "%"}, {"measurement": "% activity", "setting": "Setaria viridis; clomazone solo (CS 360 g/l), 120 gai/ha", "result": 65, "unit": "%"}, {"measurement": "% activity", "setting": "Setaria viridis; clomazone solo (CS 360 g/l), 125 gai/ha", "result": 65, "unit": "%"}, {"measurement": "pest or weed control at 30 g/ha", "setting": "Galium aparine", "result": 80, "unit": "%"}, {"measurement": "% activity", "setting": "Echinocloa crus-galli", "result": 90, "unit": "%"}, {"measurement": "pest or weed control at 60 g/ha", "setting": "Digitaria sanguinalis; Digitaria sanguinalis, 480 h, DIGSA, 20 DAT, solo clomazone (CS 360 g/l) 60 gai/ha", "result": 0, "unit": "%"}, {"measurement": "pest or weed control at 120 g/ha", "setting": "Digitaria sanguinalis; Digitaria sanguinalis, 480 h, DIGSA, 20 DAT, solo clomazone (CS 360 g/l) 120 gai/ha", "result": 30, "unit": "%"}, {"measurement": "pest or weed control at 15 g/ha", "setting": "Digitaria sanguinalis; Digitaria sanguinalis, 480 h, read-out: % activity", "result": 0, "unit": "%"}, {"measurement": "% activity", "setting": "Digitaria sanguinalis; clomazone solo (CS 360 g/l), 120 gai/ha, 20 DAT, DIGSA", "result": 30, "unit": "%"}, {"measurement": "pest or weed control at 30 g/ha", "setting": "Bromus sterilis", "result": 0, "unit": "%"}, {"measurement": "pest or weed control at 120 g/ha", "setting": "Bromus sterilis", "result": 30, "unit": "%"}, {"measurement": "pest or weed control at 15 g/ha", "setting": "Brachiaria decumbens; Urochloa decumbens, 480 h, solo clomazone (CS 360 g/l) 15 gai/ha", "result": 0, "unit": "%"}, {"measurement": "pest or weed control at 30 g/ha", "setting": "Brachiaria decumbens; Urochloa decumbens, 480 h, solo clomazone (CS 360 g/l) 30 gai/ha", "result": 0, "unit": "%"}, {"measurement": "pest or weed control at 60 g/ha", "setting": "Brachiaria decumbens; Urochloa decumbens, 480 h, solo clomazone (CS 360 g/l) 60 gai/ha", "result": 0, "unit": "%"}, {"measurement": "pest or weed control at 120 g/ha", "setting": "Brachiaria decumbens; Urochloa decumbens, 480 h, solo clomazone (CS 360 g/l) 120 gai/ha", "result": 30, "unit": "%"}, {"measurement": "% activity", "setting": "Brachiaria decumbens; 30 gai/ha", "result": 0, "unit": "%"}, {"measurement": "% activity", "setting": "Brachiaria decumbens; 60 gai/ha", "result": 0, "unit": "%"}, {"measurement": "% activity", "setting": "Brachiaria decumbens; 120 gai/ha", "result": 30, "unit": "%"}, {"measurement": "% activity", "setting": "Apera spica-venti; 15 gai/ha", "result": 20, "unit": "%"}, {"measurement": "% activity", "setting": "Apera spica-venti; 120 gai/ha", "result": 65, "unit": "%"}, {"measurement": "pest or weed control at 15 g/ha", "setting": "Ambrosia elatior; Ambrosia artemisiifolia, 480 h, solo clomazone (CS 360 g/l) 15 gai/ha", "result": 0, "unit": "%"}, {"measurement": "pest or weed control at 60 g/ha", "setting": "Ambrosia elatior; Ambrosia artemisiifolia, 480 h, solo clomazone (CS 360 g/l) 60 gai/ha", "result": 10, "unit": "%"}, {"measurement": "pest or weed control at 120 g/ha", "setting": "Ambrosia elatior; Ambrosia artemisiifolia, 480 h, solo clomazone (CS 360 g/l) 120 gai/ha", "result": 10, "unit": "%"}, {"measurement": "pest or weed control at 1250 g/ha", "setting": "Ambrosia elatior; Ambrosia artemisiifolia, 480 h, solo clomazone (CS 360 g/l) 1250 gai/ha", "result": 10, "unit": "%"}, {"measurement": "% activity", "setting": "Ambrosia elatior; 60 gai/ha", "result": 10, "unit": "%"}, {"measurement": "% activity", "setting": "Ambrosia elatior; 120 gai/ha", "result": 10, "unit": "%"}]}]}
